Results reported in patent publication US20090291975A1, “DUAL OPIOID PAIN THERAPY” (priority 2008, published 2009).

Tested on: patients following bunionectomy surgery (acute pain)
Assay: Study 4: opioid adverse events at morphine equivalent doses, bunionectomy study
Conditions: morphine equivalent 12 mg, q6h, 48 hr

Structure (SMILES) | Adverse Events (%): Constipation - moderate/severe [%] | Adverse Events (%): Constipation mild/mod/severe [%] | Adverse Events (%): Dizziness - moderate/severe [%] | Adverse Events (%): Dizziness mild/mod/severe [%] | Adverse Events (%): Nausea - moderate/severe [%] | Adverse Events (%): Nausea mild/mod/severe [%] | Adverse Events (%): Vomiting - moderate/severe [%] | Adverse Events (%): Vomiting mild/mod/severe [%] | Dropouts (%)
CN1CC[C@]23c4c5ccc(O)c4O[C@H]2[C@@H](O)C=C[C@H]3[C@H]1C5 [Morphine, morphine] | 10 | 10 | 7 | 31 | 28 | 59 | 21 | 21 | 7
COc1ccc2c3c1O[C@H]1C(=O)CC[C@@]4(O)[C@@H](C2)N(C)CC[C@]314 [Oxycodone, oxycodone] | 6 | 6 | 12 | 24 | 26 | 50 | 21 | 21 | 12
